Measured values as given in patent US9833497B2, “Human originated EGF domain proteins and use of the same” (CHENGDU SOURCEBIO LIMITED-LIABILITY COMPANY, priority 2013, dated 2017).

What was measured:
Assay type in all cases: cell-based
E. coli DH5α = test: Antibacterial activity: MIC and growth curve against E. coli DH5α in 96-well plate; conditions: minimal inhibitory concentration against E. coli DH5α; 96-well plate, 5×10^5 CFU/mL, 37° C., judged after 8 h
In short: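 MIC taken as lowest protein level with no bacterial growth, tracked by A600 every 30 min during 37 °C, 175 rpm culture. Two-fold protein series 50-12.5 μg/mL final, triplicate wells, against 5×10^5 CFU/mL of LB-washed mid-log cells.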

E. coli BL21 = test: MIC against Gram-negative bacteria: E. coli BL21; conditions: for MIC: 10 h cultivation at 37° C.
In short: (§1)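 First, colonies from LB agar were grown in LB at 37° C, 185 rpm, to McFarland turbidity 0.5, then centrifuged and resuspended in fresh LB. Next, wells received 5×10^5 CFU/mL bacteria plus two-fold serially diluted EGF domain protein (triplicate). Finally, plates were shaken at 37° C and the no-growth concentration taken as MIC.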

Pseudomonas aeruginosa = test: MIC against Gram-negative bacteria: Pseudomonas aeruginosa; conditions: for MIC: P. aeruginosa, 10 h cultivation at 37° C.
In short: as §1

Klebsiella pneumonia = test: MIC against Gram-negative bacteria: Klebsiella pneumonia; conditions: for MIC: K. pneumonia, 10 h cultivation at 37° C.
In short: as §1

Enterobacter cloacae = test: MIC against Gram-negative bacteria: Enterobacter cloacae; conditions: for MIC: E. cloacae, 10 h cultivation at 37° C.
In short: as §1

Aeromonas hydrophila = test: MIC against Gram-negative bacteria: Aeromonas hydrophila; conditions: for MIC: A. hydrophila, 10 h cultivation at 37° C.
In short: as §1

Citrobacter diversus = test: MIC against Gram-negative bacteria: Citrobacter diversus; conditions: for MIC: C. diversus, 10 h cultivation at 37° C.
In short: as §1

Moraxella catarrhalis = test: MIC against Gram-negative bacteria: Moraxella catarrhalis; conditions: for MIC: M. catarrhalis, 10 h cultivation at 37° C.
In short: as §1

Proteus mirabilis = test: MIC against Gram-negative bacteria: Proteus mirabilis; conditions: for MIC: P. mirabilis, 10 h cultivation at 37° C.
In short: as §1

Proteus vulgaris = test: MIC against Gram-negative bacteria: Proteus vulgaris; conditions: for MIC: P. vulgaris, 10 h cultivation at 37° C.
In short: as §1

Serratia marcescens = test: MIC against Gram-negative bacteria: Serratia marcescens; conditions: for MIC: S. marcescens, 10 h cultivation at 37° C.
In short: as §1

[1] = 96-well plate, 5×10^5 CFU/mL, 37° C., 10 h

PRT976 (IGVRLEQLCQAGGQCVDEDSSHYCVCPEGRTGSHCE; listed as Homo sapiens)
MIC (E. coli DH5α): 50 µg/mL
MIC (E. coli BL21; E. coli BL21): 12.5 µg/mL
MIC (Pseudomonas aeruginosa): 50 µg/mL
MIC (Klebsiella pneumonia): 12.5 µg/mL
MIC (Enterobacter cloacae): 50 µg/mL
MIC (Aeromonas hydrophila): 12.5 µg/mL
MIC (Citrobacter diversus): 25 µg/mL
MIC (Moraxella catarrhalis): 25 µg/mL
MIC (Proteus mirabilis): 50 µg/mL
MIC (Proteus vulgaris): 25 µg/mL
MIC (Serratia marcescens): 25 µg/mL

PRT974 (EADPCLSRPCLHGGVCSAAHPGFRCTCLESFTGPQCQ; listed as Homo sapiens)
MIC (E. coli DH5α): 25 µg/mL
MIC (E. coli BL21; E. coli BL21): 50 µg/mL
MIC (Pseudomonas aeruginosa): 12.5 µg/mL
MIC (Klebsiella pneumonia): 50 µg/mL
MIC (Enterobacter cloacae): 12.5 µg/mL
MIC (Aeromonas hydrophila): 50 µg/mL
MIC (Citrobacter diversus): 25 µg/mL
MIC (Moraxella catarrhalis): 12.5 µg/mL
MIC (Proteus mirabilis): 50 µg/mL
MIC (Proteus vulgaris): 25 µg/mL
MIC (Serratia marcescens): 12.5 µg/mL

PRT558 (CTCDPRGALDQLCGAGGLCRCRPGYTGTACQECSPGFHGFPSCVP; listed as Homo sapiens)
MIC (E. coli DH5α): 12.5 µg/mL
MIC against E. coli BL21 (E. coli BL21; [1]): 25 µg/mL
MIC against P. aeruginosa (Pseudomonas aeruginosa; [1]): 12.5 µg/mL
MIC against K. pneumonia (Klebsiella pneumonia; [1]): 25 µg/mL
MIC against E. cloacae (Enterobacter cloacae; [1]): 50 µg/mL
MIC against A. hydrophila (Aeromonas hydrophila; [1]): 25 µg/mL
MIC against C. diversus (Citrobacter diversus; [1]): 12.5 µg/mL
MIC against M. catarrhalis (Moraxella catarrhalis; [1]): 25 µg/mL
MIC against P. mirabilis (Proteus mirabilis; [1]): 50 µg/mL
MIC against P. vulgaris (Proteus vulgaris; [1]): 25 µg/mL
MIC against S. marcescens (Serratia marcescens; [1]): 12.5 µg/mL

PRT1033 (LYVPCAPSPCVNGGTCRQTGDFTFECNCLPETVRRGTE; listed as Homo sapiens)
MIC (E. coli DH5α): 50 µg/mL
MIC (E. coli BL21; E. coli BL21): 12.5 µg/mL
MIC (Pseudomonas aeruginosa): 50 µg/mL
MIC (Klebsiella pneumonia): 25 µg/mL
MIC (Enterobacter cloacae): 50 µg/mL
MIC (Aeromonas hydrophila): 12.5 µg/mL
MIC (Citrobacter diversus): 50 µg/mL
MIC (Moraxella catarrhalis): 100 µg/mL
MIC (Proteus mirabilis): 50 µg/mL
MIC (Proteus vulgaris): 25 µg/mL
MIC (Serratia marcescens): 50 µg/mL

PRT704 (LLSNCQQLNCQYKCTMVRNSTRCYCEDGFEITEDGRSCK; listed as Homo sapiens)
MIC (E. coli DH5α): 50 µg/mL
MIC E. coli BL21 (E. coli BL21; [1]): 25 µg/mL
MIC P. aeruginosa (Pseudomonas aeruginosa; [1]): 50 µg/mL
MIC K. pneumonia (Klebsiella pneumonia; [1]): 25 µg/mL
MIC E. cloacae (Enterobacter cloacae; [1]): 50 µg/mL
MIC A. hydrophila (Aeromonas hydrophila; [1]): 50 µg/mL
MIC C. diversus (Citrobacter diversus; [1]): 25 µg/mL
MIC M. catarrhalis (Moraxella catarrhalis; [1]): 12.5 µg/mL
MIC P. mirabilis (Proteus mirabilis; [1]): 50 µg/mL
MIC P. vulgaris (Proteus vulgaris; [1]): 25 µg/mL
MIC S. marcescens (Serratia marcescens; [1]): 12.5 µg/mL

PRT13 (PARSCAEEPCGAGTCKETEGHVICLCPPGYTGEHCN; listed as Homo sapiens)
MIC (E. coli DH5α): 25 µg/mL
MIC (μg/mL) E. coli BL21 (E. coli BL21; E. coli BL21, 96-well plate, 5×10^5 CFU/mL, 37° C., 10 h): 12.5 µg/mL
MIC (μg/mL) P. aeruginosa (Pseudomonas aeruginosa; Pseudomonas aeruginosa, 96-well plate, 5×10^5 CFU/mL, 37° C., 10 h): 12.5 µg/mL
MIC (μg/mL) K. pneumonia (Klebsiella pneumonia; Klebsiella pneumonia, 96-well plate, 5×10^5 CFU/mL, 37° C., 10 h): 25 µg/mL
MIC (μg/mL) E. cloacae (Enterobacter cloacae; Enterobacter cloacae, 96-well plate, 5×10^5 CFU/mL, 37° C., 10 h): 12.5 µg/mL
MIC (μg/mL) A. hydrophila (Aeromonas hydrophila; Aeromonas hydrophila, 96-well plate, 5×10^5 CFU/mL, 37° C., 10 h): 12.5 µg/mL
MIC (μg/mL) C. diversus (Citrobacter diversus; Citrobacter diversus, 96-well plate, 5×10^5 CFU/mL, 37° C., 10 h): 25 µg/mL
MIC (μg/mL) M. catarrhalis (Moraxella catarrhalis; Moraxella catarrhalis, 96-well plate, 5×10^5 CFU/mL, 37° C., 10 h): 12.5 µg/mL
MIC (μg/mL) P. mirabilis (Proteus mirabilis; Proteus mirabilis, 96-well plate, 5×10^5 CFU/mL, 37° C., 10 h): 50 µg/mL
MIC (μg/mL) P. vulgaris (Proteus vulgaris; Proteus vulgaris, 96-well plate, 5×10^5 CFU/mL, 37° C., 10 h): 25 µg/mL
MIC (μg/mL) S. marcescens (Serratia marcescens; Serratia marcescens, 96-well plate, 5×10^5 CFU/mL, 37° C., 10 h): 12.5 µg/mL

PRT471 (VCEPGCGAHGTCHEPNKCQCQEGWHGRHCN; listed as Homo sapiens)
MIC (E. coli DH5α): 100 µg/mL
MIC against E. coli BL21 (E. coli BL21; [1]): 12.5 µg/mL
MIC against P. aeruginosa (Pseudomonas aeruginosa; [1]): 12.5 µg/mL
MIC against K. pneumonia (Klebsiella pneumonia; [1]): 12.5 µg/mL
MIC against E. cloacae (Enterobacter cloacae; [1]): 12.5 µg/mL
MIC against A. hydrophila (Aeromonas hydrophila; [1]): 12.5 µg/mL
MIC against C. diversus (Citrobacter diversus; [1]): 12.5 µg/mL
MIC against M. catarrhalis (Moraxella catarrhalis; [1]): 12.5 µg/mL
MIC against P. mirabilis (Proteus mirabilis; [1]): 12.5 µg/mL
MIC against P. vulgaris (Proteus vulgaris; [1]): 25 µg/mL
MIC against S. marcescens (Serratia marcescens; [1]): 12.5 µg/mL
